From patent US20070072912A1, “Alicyclic-amine-substituted 4-carboxamido-benzimidazoles as parp-inhibitors and antioxidants” (Cedars-Sinai Medical Center, priority 2003, published 2007) come the findings set out here.

SMILES strings stand for the structures. Structures can show the parent of a compound that is named as a salt.

Test system in the first data set: not given
Assay: not given
Conditions: not given
By melting point is commonly meant the temperature, or range, at which the solid turns liquid. Regarding `CC1(C)C=C(CSc2nc3c(C(N)=O)cccc3[nH]2)C(C)(C)N1` (as salt: HCl) [Compound 27, 2-(2,2,5,5-tetramethyl-2,5-dihydro-1H-pyrrol-3-yl-methyl-sulphanyl)-1H-benzimidazole 4-carboxylic acid amide], the melting point is 209 to 211 °C.

Regarding `CC1(C)C=C(CSc2nc3c(C(N)=O)cccc3[nH]2)CC(C)(C)N1` [Compound 29, 2-(2,2,6,6-tetramethyl-1,2,3,6-tetrahydro-pyridin-4-yl-methylsulphanyl)-1H-benzimidazole 4-carboxylic acid amide], the melting point was 245 to 246 °C.

For another data set, the target named is T1, Poly-ADP-ribose polymerase (PARP enzyme) (Rattus norvegicus, UniProt P27008).
T1 construct: Poly-ADP-ribose polymerase was isolated from rat liver; from tissue; host or cells: rat liver
T1 sequence (P27008 whole entry): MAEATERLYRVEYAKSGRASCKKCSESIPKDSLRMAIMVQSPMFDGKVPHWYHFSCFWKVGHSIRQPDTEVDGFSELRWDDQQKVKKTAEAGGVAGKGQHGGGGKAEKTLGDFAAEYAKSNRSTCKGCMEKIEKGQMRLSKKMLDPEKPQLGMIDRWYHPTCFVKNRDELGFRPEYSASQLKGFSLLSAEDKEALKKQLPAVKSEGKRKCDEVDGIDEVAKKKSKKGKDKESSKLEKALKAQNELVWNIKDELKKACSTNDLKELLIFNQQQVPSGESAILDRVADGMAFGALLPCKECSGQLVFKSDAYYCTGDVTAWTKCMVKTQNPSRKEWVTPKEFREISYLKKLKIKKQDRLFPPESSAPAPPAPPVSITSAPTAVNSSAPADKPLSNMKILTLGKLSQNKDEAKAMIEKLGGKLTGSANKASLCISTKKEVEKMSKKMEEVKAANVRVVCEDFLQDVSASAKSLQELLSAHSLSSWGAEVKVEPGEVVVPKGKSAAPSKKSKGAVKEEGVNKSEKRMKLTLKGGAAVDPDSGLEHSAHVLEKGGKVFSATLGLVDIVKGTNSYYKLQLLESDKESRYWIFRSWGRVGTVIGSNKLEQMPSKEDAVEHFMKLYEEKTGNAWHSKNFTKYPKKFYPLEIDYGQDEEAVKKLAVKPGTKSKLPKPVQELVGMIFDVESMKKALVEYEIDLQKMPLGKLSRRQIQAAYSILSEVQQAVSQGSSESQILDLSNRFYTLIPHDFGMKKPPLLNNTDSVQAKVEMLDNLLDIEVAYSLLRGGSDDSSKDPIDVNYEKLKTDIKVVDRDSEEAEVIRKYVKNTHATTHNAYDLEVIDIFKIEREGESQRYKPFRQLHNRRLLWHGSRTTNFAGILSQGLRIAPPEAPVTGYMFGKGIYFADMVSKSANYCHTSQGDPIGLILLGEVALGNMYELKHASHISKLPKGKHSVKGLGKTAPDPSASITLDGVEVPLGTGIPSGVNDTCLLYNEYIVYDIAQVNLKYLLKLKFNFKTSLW
In words: Inhibitory effect of benzimidazole derivatives on PARP enzyme in vitro ([3H]NAD+ incorporation). The format is biochemical.
Conditions: not given
Here is the method:
Assay to test inhibitory effects of benzimidazole derivatives on PARP enzyme in vitro.
The potential inhibitory effect of benzimidazole derivatives were tested in this assay system. The PARP activity was determined in 130 μl reaction mixture contained 100 mM Tris-HCl buffer, pH 8.0, 10 mM MgCl2, 10% glycerol, 1.5 mM DTT, 1 mM [Adenine-2,8-^3H] NAD^+ (4.500 cpm/nmol), 10 μg activated DNA and 10 μg histones. The incubation time was 15 minutes, and the reaction was stopped by addition of trichloro-acetic acid (8%). After addition of 0.5 mg albumine, precipitation was allowed to proceed for at least 20 minutes on ice, and the insoluble material was collected on a glass filter washed with 5% perchloric acid. The protein-bound radio-activity was determined by a LS-200 Beckman scintillation counter.
Broadly, the IC50 is the concentration that inhibits the measured activity by half. In turn, `CC1(C)C=C(c2nc3c(C(N)=O)cccc3[nH]2)C(C)(C)N1[O]` [Compound 1, 2-(1-oxyl-2,2,5,5-tetramethyl-2,5-dihydro-1H-pyrrol-3-yl)-1H-benzimidazole 4-carboxylic acid amide radical] yielded an IC50 of 721 nM.

With `CC1(C)C(Br)=C(c2nc3c(C(N)=O)cccc3[nH]2)C(C)(C)N1[O]` [Compound 5, 2-(4-bromo-1-oxyl-2,2,5,5-tetramethyl-2,5-dihydro-1H-pyrrol-3-yl)-1H-benzimidazole 4-carboxylic acid amide radical], the IC50 came to 201 nM.

The compound `CC1(C)C(c2ccccc2)=C(c2nc3c(C(N)=O)cccc3[nH]2)C(C)(C)N1[O]` [Compound 7, 2-(1-oxyl-4-phenyl-2,2,5,5-tetramethyl-2,5-dihydro-1H-pyrrol-3-yl)-1H-benzimidazole 4-carboxylic acid amide radical] had an IC50 of 1500 nM.

Take `CC1(C)C(c2cccc(C(F)(F)F)c2)=C(c2nc3c(C(N)=O)cccc3[nH]2)C(C)(C)N1[O]` [Compound 9, 2-[1-oxyl-2,2,5,5-tetramethyl-4-(3-trifluoromethyl-phenyl)-2,5-dihydro-1H-pyrrol-3-yl]-1H-benzimidazole 4-carboxylic acid amide radical]: the IC50 was 149 nM.

Regarding `CC1(C)NC(C)(C)C(c2nc3c(C(N)=O)cccc3[nH]2)=C1c1cccc(C(F)(F)F)c1` [Compound 10, 2-[2,2,5,5-tetramethyl-4-(3-trifluoromethyl-phenyl)-2,5-dihydro-1H-pyrrol-3-yl]-1H-benzimidazole 4-carboxylic acid amide], the IC50 was 133 nM.

`CC1(C)C=C(c2ccc(-c3nc4c(C(N)=O)cccc4[nH]3)cc2)C(C)(C)N1[O]` [Compound 11, 2-[4-(1-oxyl-2,2,5,5-tetramethyl-2,5-dihydro-1H-pyrrol-3-yl)-phenyl]-1H-benzimidazole 4-carboxylic acid amide radical] returned a half-inhibitory concentration (IC50) of 78 nM.

In turn, `CN1C(C)(C)C=C(c2nc3c(C(N)=O)cccc3[nH]2)C1(C)C` [Compound 13, 2-(1,2,2,5,5-pentamethyl-2,5-dihydro-1H-pyrrol-3-yl)-1H-benzimidazole 4-carboxylic acid amide] returned an IC50 of 42 nM.

As for `CC1(C)C(c2nc3c(C(N)=O)cccc3[nH]2)=C(c2cccc3c2oc2ccccc23)C(C)(C)N1[O]` [Compound 16], the IC50 worked out at 1800 nM.

With `CC1(C)C=C(c2nc3c(C(N)=O)cccc3[nH]2)CC(C)(C)N1` [Compound 19, 2-(2,2,6,6-tetramethyl-1,2,3,6-tetrahydro-pyridin-4-yl)-1H-benzimidazole 4-carboxylic acid amide], half-maximal inhibition (IC50) required 14 nM.

Turning to `CC1(C)C=C(COc2ccc(-c3nc4c(C(N)=O)cccc4[nH]3)cc2)C(C)(C)N1[O]` [Compound 20, 2-[4-(1-oxyl-2,2,5,5-tetramethyl-2,5-dihydro-1H-pyrrol-3-yl-methoxy)-phenyl]-1H-benzimidazole 4-carboxylic acid amide radical], 564 nM corresponded to half-maximal inhibition (IC50).

`COc1cc(-c2nc3c(C(N)=O)cccc3[nH]2)ccc1OCC1=CC(C)(C)N([O])C1(C)C` [Compound 22, 2-[3-methoxy-4-(1-oxyl-2,2,5,5-tetramethyl-2,5-dihydro-1H-pyrrol-3-yl-methoxy)-phenyl]-1H-benzimidazole 4-carboxylic acid amide radical] came in with an IC50 of 472 nM.

Consider `COc1cc(-c2nc3c(C(N)=O)cccc3[nH]2)ccc1OCC1=CC(C)(C)NC1(C)C` [Compound 23, 2-[3-methoxy-4-(2,2,5,5-tetramethyl-2,5-dihydro-1H-pyrrol-3-yl-methoxy)-phenyl]-1H-benzimidazole 4-carboxylic acid amide], for which the IC50 was determined as 432 nM.

For the compound `CC1(C)c2cc(-c3nc4c(C(N)=O)cccc4[nH]3)sc2C(C)(C)N1[O]` [Compound 24, 2-(5-oxyl-4,4,6,6-tetramethyl-4,6-dihydro-5H-thieno[2,3-c]pyrrol-2-yl)-1H-benzimidazole 4-carboxylic acid amide radical], the IC50 stood at 3400 nM.

With `CC1(C)NC(C)(C)c2sc(-c3nc4c(C(N)=O)cccc4[nH]3)cc21` [Compound 25, 2-(4,4,6,6-tetramethyl-4,6-dihydro-5H-thieno[2,3-c]pyrrol-2-yl)-1H-benzimidazole 4-carboxylic acid amide], the half-maximal inhibitory concentration (IC50) is 354 nM.

The same data set, now with this note: PARP isolated from rat liver, 1 mM [3H]NAD+, 15 min incubation; read-out: PARP IC50.
Regarding `CC1(C)C=C(c2nc3c(C(N)=O)cccc3[nH]2)C(C)(C)N1` [Compound 2, 2-(2,2,5,5-tetramethyl-2,5-dihydro-1H-pyrrol-3-yl)-1H-benzimidazole 4-carboxylic acid amide], the IC50 turned out to be 345 nM.

As to `COC(=O)C1C(c2nc3c(C(N)=O)cccc3[nH]2)C(C)(C)NC1(C)C` (centres unmarked) [Compound 4, 4-(4-carbamoyl-1H-benzimidazol-2-yl)-2,2,5,5-tetramethyl-pyrrolidine-3-carboxylic acid methyl ester], the IC50 amounted to 216 nM.

With `CC1(C)NC(C)(C)C(c2nc3c(C(N)=O)cccc3[nH]2)=C1Br` [Compound 6, 2-(4-bromo-2,2,5,5-tetramethyl-2,5-dihydro-1H-pyrrol-3-yl)-1H-benzimidazole 4-carboxylic acid amide], the IC50 is 137 nM.

Consider `CC1(C)NC(C)(C)C(c2nc3c(C(N)=O)cccc3[nH]2)=C1c1ccccc1` [Compound 8, 2-(4-phenyl-2,2,5,5-tetramethyl-2,5-dihydro-1H-pyrrol-3-yl)-1H-benzimidazole 4-carboxylic acid amide], for which the IC50 was 310 nM.

For `CC1(C)C=C(c2ccc(-c3nc4c(C(N)=O)cccc4[nH]3)cc2)C(C)(C)N1` [Compound 12, 2-[4-(2,2,5,5-tetramethyl-2,5-dihydro-1H-pyrrol-3-yl)-phenyl]-1H-benzimidazole 4-carboxylic acid amide], the IC50 came out at 98 nM.

As to `CC(=O)N1C(C)(C)C=C(c2nc3c(C(N)=O)cccc3[nH]2)C1(C)C` [Compound 14, 2-(1-acetyl-2,2,5,5-tetramethyl-2,5-dihydro-1H-pyrrol-3-yl)-1H-benzimidazole 4-carboxylic acid amide], the IC50 was determined as 49 nM.

Regarding `CON1C(C)(C)C=C(c2nc3c(C(N)=O)cccc3[nH]2)C1(C)C` [Compound 15, 2-(1-methoxy-2,2,5,5-tetramethyl-2,5-dihydro-1H-pyrrol-3-yl)-1H-benzimidazole 4-carboxylic acid amide], the IC50 came out at 61 nM.

As to `CC1(C)NC(C)(C)C(c2cccc3c2oc2ccccc23)=C1c1nc2c(C(N)=O)cccc2[nH]1` [Compound 17], the IC50 was found to be 8200 nM.

Consider `CC1(C)C=C(c2nc3c(C(N)=O)cccc3[nH]2)CC(C)(C)N1O` [Compound 18, (1-hydroxy-2,2,6,6-tetramethyl-1,2,3,6-tetrahydro-pyridin-4-yl)-1H-benzimidazole 4-carboxylic acid amide], for which the IC50 is 26 nM.

As for `CC1(C)C=C(COc2ccc(-c3nc4c(C(N)=O)cccc4[nH]3)cc2)C(C)(C)N1` [Compound 21, 2-[4-(2,2,5,5-tetramethyl-2,5-dihydro-1H-pyrrol-3-yl-methoxy)-phenyl]-1H-benzimidazole 4-carboxylic acid amide], the IC50 came out at 572 nM.
